Target: Human VPS34 (Homo sapiens (Human), UniProt Q8NEB9)
Test: Human VPS34 enzyme assay (Adapta TR-FRET)
Type: biochemical
Settings: compound concentration 1.11 μM; read-out: Percent Inhibition

Chain of Human VPS34 (Q8NEB9 whole entry): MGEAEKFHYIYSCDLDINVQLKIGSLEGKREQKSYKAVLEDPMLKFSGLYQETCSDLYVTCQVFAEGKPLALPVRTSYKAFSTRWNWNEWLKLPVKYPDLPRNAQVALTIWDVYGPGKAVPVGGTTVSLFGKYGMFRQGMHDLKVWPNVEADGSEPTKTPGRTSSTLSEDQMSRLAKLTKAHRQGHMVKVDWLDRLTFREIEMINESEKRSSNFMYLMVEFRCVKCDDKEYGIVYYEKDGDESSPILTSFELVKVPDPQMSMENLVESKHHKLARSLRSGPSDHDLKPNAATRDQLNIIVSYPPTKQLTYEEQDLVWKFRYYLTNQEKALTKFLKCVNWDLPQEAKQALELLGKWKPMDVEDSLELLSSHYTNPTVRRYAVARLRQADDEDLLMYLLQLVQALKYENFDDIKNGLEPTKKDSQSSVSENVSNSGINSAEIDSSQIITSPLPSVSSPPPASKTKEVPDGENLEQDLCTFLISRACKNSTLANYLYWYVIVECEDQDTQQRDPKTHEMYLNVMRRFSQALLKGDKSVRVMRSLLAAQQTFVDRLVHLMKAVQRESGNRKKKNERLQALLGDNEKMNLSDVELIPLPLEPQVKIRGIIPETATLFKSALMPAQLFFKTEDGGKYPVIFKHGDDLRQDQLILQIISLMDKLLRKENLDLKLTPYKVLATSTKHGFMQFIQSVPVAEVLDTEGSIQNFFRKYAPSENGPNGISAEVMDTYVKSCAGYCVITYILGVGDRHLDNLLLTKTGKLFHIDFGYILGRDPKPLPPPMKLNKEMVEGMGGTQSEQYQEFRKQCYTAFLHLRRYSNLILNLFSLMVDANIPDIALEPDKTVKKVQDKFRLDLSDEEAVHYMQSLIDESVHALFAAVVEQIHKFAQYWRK

Going from CC(=O)Nc1cc(-c2cnc(C)c(NC(=O)c3ccc(F)cc3F)c2)ccn1 [Compound I-115, N-(2′-acetamido-6-methyl-3,4′-bipyridin-5-yl)-2,4-difluorobenzamide] to CC(=O)Nc1cc(-c2cnc(C)c(NS(=O)(=O)c3ccc(C)cc3Cl)c2)ccn1 [Compound I-128], the inhibition at 1.11 µM rises from 68% to over 99%.

First: CC(=O)Nc1cc(-c2cnc3cn[nH]c3c2)ccn1 [Compound I-116, N-[4-(1H-pyrazolo[4,3-b]pyridin-6-yl)pyridin-2-yl]acetamide]
Second: O=C(Nc1cc(-c2cnc3[nH]ncc3c2)ccn1)C1CC1 [Compound I-117, N-[4-(1H-pyrazolo[3,4-b]pyridin-5-yl)pyridin-2-yl]cyclopropanecarboxamide]
The inhibition at 1.11 µM of the first is lower: 68% for the first, over 99% for the second.

CC(=O)Nc1cc(-c2cncc(S(=O)(=O)N3CCC(F)(F)C3)c2)ccn1 [Compound I-118, N-{5-[(3,3-difluoropyrrolidin-1-yl)sulfonyl]-3,4′-bipyridin-2′-yl}acetamide] and CCN(CC)S(=O)(=O)c1cncc(-c2ccnc(NC(C)=O)c2)c1 [Compound I-120, N-[5-(diethylsulfamoyl)-3,4′-bipyridin-2′-yl]acetamide] cannot be ordered by inhibition at 1.11 µM: over 99% for the first, over 99% for the second.

Going from CC(=O)Nc1cc(-c2cnc(N)c(S(=O)(=O)N(C)C)c2)ccn1 [Compound I-119, N-[6-amino-5-(dimethylsulfamoyl)-3,4′-bipyridin-2′-yl]acetamide] to CCN(CC)S(=O)(=O)c1cc(-c2ccnc(NC(C)=O)c2)cnc1N [Compound I-124, N-[6-amino-5-(diethylsulfamoyl)-3,4′-bipyridin-2′-yl]acetamide], the inhibition at 1.11 µM falls from over 99% to 91%.

CC(=O)Nc1cc(-c2cnc(N)c(C(=O)Nc3cc(C)cnn3)c2)ccn1 [Compound I-121, 2′-acetamido-6-amino-N-(5-methylpyridazin-3-yl)-3,4′-bipyridine-5-carboxamide] and CC(=O)Nc1cc(-c2cnc(N)c(C(=O)N3Cc4ccccc4C3)c2)ccn1 [Compound I-125, N-[6-amino-5-(1,3-dihydro-2H-isoindoI-2-ylcarbonyl)-3,4′-bipyridin-2′-yl]acetamide] cannot be ordered by inhibition at 1.11 µM: over 99% for the first, over 99% for the second.

CC(=O)Nc1cc(-c2cnc(N)c(S(=O)(=O)O)c2)ccn1 [Compound I-122, 2′-acetamido-6-amino-3,4′-bipyridine-5-sulfonic acid] and CC(=O)Nc1cc(-c2cnc(N)c(N(C)S(C)(=O)=O)c2)ccn1 [Compound I-133, N-{6-amino-5-[methyl(methylsulfonyl)amino]-3,4′-bipyridin-2′-yl}acetamide] cannot be ordered by inhibition at 1.11 µM: over 99% for the first, over 99% for the second.

COc1cccc(S(=O)(=O)Nc2cc(-c3ccnc(NC(C)=O)c3)cnc2C)c1 [Compound I-123] and CC(=O)Nc1cc(-c2cnc(C)c(NS(=O)(=O)c3ccc(C(C)(C)C)cc3)c2)ccn1 [Compound I-131, N-(5-{[(4-tert-butylphenyl)sulfonyl]amino}-6-methyl-3,4′-bipyridin-2′-yl)acetamide] cannot be ordered by inhibition at 1.11 µM: over 99% for the first, over 99% for the second.

CC(=O)Nc1cc(-c2cnc(N)c(S(=O)(=O)CCc3ccccc3)c2)ccn1 [Compound I-126, N-{6-amino-5-[(2-phenylethyl)sulfonyl]-3,4′-bipyridin-2′-yl}acetamide] and COc1ncc(-c2ccnc(NC(C)=O)c2)cc1C(=O)N(C)C [Compound I-127, 2′-acetamido-6-methoxy-N,N-dimethyl-3,4′-bipyridine-5-carboxamide] cannot be ordered by inhibition at 1.11 µM: over 99% for the first, over 99% for the second.

CC(=O)Nc1cc(-c2cnc(C)c(NS(=O)(=O)c3ccc(C)cc3F)c2)c(C)cn1 [Compound I-130, N-(5-{[(2-fluoro-4-methylphenyl)sulfonyl]amino}-5′,6-dimethyl-3,4′-bipyridin-2′-yl)acetamide] and CNc1ncc(-c2ccnc(NC(C)=O)c2)cc1N1CCCS1(=O)=O [Compound I-132, N-[5-(1,1-dioxidoisothiazolidin-2-yl)-6-(methylamino)-3,4′-bipyridin-2′-yl]acetamide] cannot be ordered by inhibition at 1.11 µM: over 99% for the first, over 99% for the second.

— patent publication US9802960B2 (MILLENNIUM PHARMACEUTICALS, INC., priority 2014, dated 2017)
